ChEMBL document CHEMBL1909046, “DrugMatrix in vitro pharmacology data”

Experiments:
[1] = DRUGMATRIX: Glutamate, NMDA, Phencyclidine radioligand binding (ligand: [3H] TCP); format: cell membranes, Rattus norvegicus, Wistar, Cerebral cortex, Membrane; settings: Not Active = under 50% inhibition at 10 µM
Acetylcholinesterase = Acetylcholinesterase (Homo sapiens, UniProt P22303); test: DRUGMATRIX: Acetylcholinesterase enzyme inhibition (substrate: acetylthiocholine); format: cell-based, HEK293; settings: hek293; Not Active = under 50% inhibition at 10 µM
Glycine receptor = Glycine receptor (Rattus norvegicus, UniProt P22771+P24524+P07727+P20781); format: cell membranes, Wistar, Spinal cord, Membrane; also: in other assays of this panel Not Active means under 50% inhibition at 10 µM
[2] = DRUGMATRIX: Phosphodiesterase PDE3 enzyme inhibition (substrate: [3H]cAMP + cAMP); format: tissue-based, Homo sapiens; settings: platelet, Not Active = under 50% inhibition at 10 µM
[3] = DRUGMATRIX: Sigma2 radioligand binding (ligand: [3H] Ifenprodil); format: cell membranes, Rattus norvegicus, Wistar, Brain, Membrane; settings: Not Active = under 50% inhibition at 10 µM
[4] = DRUGMATRIX: Glutamate, AMPA radioligand binding (ligand: [3H] AMPA); format: cell membranes, Rattus norvegicus, Wistar, Cerebral cortex, Membrane; settings: Not Active = under 50% inhibition at 10 µM
[5] = DRUGMATRIX: Glutamate, Kainate radioligand binding (ligand: [3H] Kainic acid); format: cell membranes, Rattus norvegicus, Wistar, Brain, Membrane; settings: Not Active = under 50% inhibition at 10 µM
Nitric oxide synthase 1 = Nitric oxide synthase 1 (Rattus norvegicus, UniProt P29476); format: tissue-based, Cerebellum; also: in other assays of this panel Not Active means under 50% inhibition at 10 µM
Sequence of Nitric oxide synthase 1 (P29476 whole entry): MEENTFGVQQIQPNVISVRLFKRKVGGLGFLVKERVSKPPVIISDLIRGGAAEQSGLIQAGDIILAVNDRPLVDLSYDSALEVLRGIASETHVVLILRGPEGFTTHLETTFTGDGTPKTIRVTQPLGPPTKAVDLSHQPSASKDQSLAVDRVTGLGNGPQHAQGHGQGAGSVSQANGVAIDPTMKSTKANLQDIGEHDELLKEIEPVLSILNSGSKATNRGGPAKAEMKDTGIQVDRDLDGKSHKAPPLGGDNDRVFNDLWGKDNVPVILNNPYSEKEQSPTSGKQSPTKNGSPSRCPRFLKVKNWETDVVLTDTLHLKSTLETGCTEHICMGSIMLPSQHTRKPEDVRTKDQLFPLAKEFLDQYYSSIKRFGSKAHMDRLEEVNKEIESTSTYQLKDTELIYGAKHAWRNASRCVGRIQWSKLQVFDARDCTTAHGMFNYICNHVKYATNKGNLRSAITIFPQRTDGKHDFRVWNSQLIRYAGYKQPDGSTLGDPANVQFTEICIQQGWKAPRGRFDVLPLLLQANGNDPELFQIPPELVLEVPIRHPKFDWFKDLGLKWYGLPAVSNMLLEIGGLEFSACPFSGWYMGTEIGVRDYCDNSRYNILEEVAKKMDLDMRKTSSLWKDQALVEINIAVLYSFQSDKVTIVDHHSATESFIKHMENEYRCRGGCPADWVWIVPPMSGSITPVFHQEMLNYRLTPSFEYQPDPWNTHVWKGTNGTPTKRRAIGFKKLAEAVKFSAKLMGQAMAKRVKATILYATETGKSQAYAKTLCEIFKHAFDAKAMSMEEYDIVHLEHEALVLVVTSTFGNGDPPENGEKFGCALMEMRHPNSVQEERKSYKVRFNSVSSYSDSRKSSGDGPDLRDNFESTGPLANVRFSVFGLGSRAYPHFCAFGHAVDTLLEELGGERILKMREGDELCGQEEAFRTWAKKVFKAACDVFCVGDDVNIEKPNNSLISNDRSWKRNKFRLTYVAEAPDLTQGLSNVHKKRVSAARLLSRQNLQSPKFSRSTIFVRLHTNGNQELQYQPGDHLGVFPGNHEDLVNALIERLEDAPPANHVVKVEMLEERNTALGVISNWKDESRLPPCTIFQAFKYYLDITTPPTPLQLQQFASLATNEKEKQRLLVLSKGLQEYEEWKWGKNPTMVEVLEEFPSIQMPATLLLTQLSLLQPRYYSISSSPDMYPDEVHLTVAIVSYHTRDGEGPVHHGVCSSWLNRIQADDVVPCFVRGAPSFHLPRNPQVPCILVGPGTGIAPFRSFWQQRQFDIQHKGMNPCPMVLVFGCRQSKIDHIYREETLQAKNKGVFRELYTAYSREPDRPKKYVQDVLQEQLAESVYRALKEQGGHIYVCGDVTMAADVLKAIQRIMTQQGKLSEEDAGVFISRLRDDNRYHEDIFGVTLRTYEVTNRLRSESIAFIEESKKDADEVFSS

Sequence of Acetylcholinesterase (P22303 whole entry): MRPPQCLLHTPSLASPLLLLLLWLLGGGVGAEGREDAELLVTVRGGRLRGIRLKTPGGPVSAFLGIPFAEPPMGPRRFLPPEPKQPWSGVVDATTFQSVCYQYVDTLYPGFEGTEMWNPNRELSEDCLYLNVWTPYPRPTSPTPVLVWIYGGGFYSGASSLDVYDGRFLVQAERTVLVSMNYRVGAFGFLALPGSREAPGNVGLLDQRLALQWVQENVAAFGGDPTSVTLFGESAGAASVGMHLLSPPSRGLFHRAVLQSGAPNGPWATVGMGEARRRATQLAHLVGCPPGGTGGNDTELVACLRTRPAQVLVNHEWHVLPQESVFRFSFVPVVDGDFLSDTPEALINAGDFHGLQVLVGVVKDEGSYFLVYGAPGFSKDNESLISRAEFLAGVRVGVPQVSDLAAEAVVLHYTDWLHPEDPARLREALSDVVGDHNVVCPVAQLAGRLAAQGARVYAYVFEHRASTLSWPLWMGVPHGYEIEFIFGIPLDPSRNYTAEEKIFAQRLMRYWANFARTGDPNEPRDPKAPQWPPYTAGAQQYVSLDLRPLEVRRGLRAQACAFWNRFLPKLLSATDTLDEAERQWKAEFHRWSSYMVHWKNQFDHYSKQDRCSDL

| Compound | IC50 [1] | Ki [1] | IC50 (Acetylcholinesterase) | IC50 (Glycine receptor) | IC50 [2] | Ki [2] | IC50 [3] | Ki [3] | IC50 [4] | Ki [4] | IC50 [5] | Ki [5] | IC50 (Nitric oxide synthase 1) | IC50 ([3]; read-out: IC50) | Ki ([3]; read-out: Ki) | IC50 ([2]; read-out: IC50) |
| --- | --- | --- | --- | --- | --- | --- | --- | --- | --- | --- | --- | --- | --- | --- | --- | --- |
| CCOc1cc(N)c(Cl)cc1C(=O)NCC1CN(Cc2ccc(F)cc2)CCO1 (stereo unspecified) [MOSAPRIDE] | Not Active | Not Active | Not Active | Not Active | Not Active | Not Active | Not Active | Not Active | Not Active | Not Active | Not Active | Not Active | Not Active | – | – | – |
| O=C(c1ccccc1)c1ccc2n1CCC2C(=O)O (stereo unspecified) [KETOROLAC] | Not Active | Not Active | Not Active | Not Active | Not Active | Not Active | Not Active | Not Active | Not Active | Not Active | Not Active | Not Active | Not Active | – | – | – |
| Nc1nc(N)c2nc(-c3ccccc3)c(N)nc2n1 | Not Active | Not Active | Not Active | Not Active | Not Active | Not Active | Not Active | Not Active | Not Active | Not Active | Not Active | Not Active | Not Active | – | – | – |
| Oc1ccc(/C=C/c2cc(O)cc(O)c2)cc1 [RESVERATROL] | Not Active | Not Active | Not Active | Not Active | Not Active | Not Active | Not Active | Not Active | Not Active | Not Active | Not Active | Not Active | Not Active | – | – | – |
| Cc1ccnc(NS(=O)(=O)c2ccc(N)cc2)n1 [SULFAMERAZINE] | Not Active | Not Active | Not Active | Not Active | Not Active | Not Active | Not Active | Not Active | Not Active | Not Active | Not Active | Not Active | Not Active | – | – | – |
| CCN1CCCC1CNC(=O)c1cc(S(N)(=O)=O)ccc1OC (stereo unspecified) [SULPIRIDE] | Not Active | Not Active | Not Active | Not Active | Not Active | Not Active | Not Active | Not Active | Not Active | Not Active | Not Active | Not Active | Not Active | – | – | – |
| O=C1CC[C@@]2(O)[C@H]3Cc4ccc(O)c5c4[C@@]2(CCN3CC2CC2)[C@H]1O5 [NALTREXONE] | Not Active | Not Active | Not Active | Not Active | Not Active | Not Active | Not Active | Not Active | Not Active | Not Active | Not Active | Not Active | Not Active | – | – | – |
| CCN(CC)C(=S)SSC(=S)N(CC)CC | Not Active | Not Active | Not Active | Not Active | Not Active | Not Active | – | – | Not Active | Not Active | Not Active | Not Active | Not Active | 75.6 µM | 46.5 µM | – |
| O=C(OC[C@H]1O[C@@H](OC(=O)c2cc(O)c(O)c(OC(=O)c3cc(O)c(O)c(O)c3)c2)[C@H](OC(=O)c2cc(O)c(O)c(OC(=O)c3cc(O)c(O)c(O)c3)c2)[C@@H](OC(=O)c2cc(O)c(O)c(OC(=O)c3cc(O)c(O)c(O)c3)c2)[C@@H]1OC(=O)c1cc(O)c(O)c(OC(=O)c2cc(O)c(O)c(O)c2)c1)c1cc(O)c(O)c(OC(=O)c2cc(O)c(O)c(O)c2)c1 [TANNIC ACID] | Not Active | Not Active | Not Active | Not Active | – | – | Not Active | Not Active | Not Active | Not Active | Not Active | Not Active | Not Active | – | – | 0.714 µM |
| C=CCc1ccc2c(c1)OCO2 [SAFROLE] | Not Active | Not Active | Not Active | Not Active | Not Active | Not Active | Not Active | Not Active | Not Active | Not Active | Not Active | Not Active | Not Active | – | – | – |
| C#C[C@]1(O)CC[C@H]2[C@@H]3[C@H](C)CC4=C(CCC(=O)C4)[C@H]3CC[C@@]21C [TIBOLONE] | Not Active | Not Active | Not Active | Not Active | Not Active | Not Active | Not Active | Not Active | Not Active | Not Active | Not Active | Not Active | Not Active | – | – | – |
| CC[C@@]1(O)C(=O)OCc2c1cc1n(c2=O)Cc2cc3c(CN(C)C)c(O)ccc3nc2-1 [TOPOTECAN] | Not Active | Not Active | Not Active | Not Active | Not Active | Not Active | Not Active | Not Active | Not Active | Not Active | Not Active | Not Active | Not Active | – | – | – |
| CC1(C)[C@H](C(=O)O)N2C(=O)C[C@H]2S1(=O)=O [SULBACTAM] | Not Active | Not Active | Not Active | Not Active | Not Active | Not Active | Not Active | Not Active | Not Active | Not Active | Not Active | Not Active | Not Active | – | – | – |
| CCN(CC)N=O [N-NITROSODIETHYLAMINE] | Not Active | Not Active | Not Active | Not Active | Not Active | Not Active | Not Active | Not Active | Not Active | Not Active | Not Active | Not Active | Not Active | – | – | – |
| C[C@]12CCC(=O)C[C@@H]1CC[C@@H]1[C@@H]2CC[C@]2(C)[C@@H](O)CC[C@@H]12 [STANOLONE] | Not Active | Not Active | Not Active | Not Active | Not Active | Not Active | Not Active | Not Active | Not Active | Not Active | Not Active | Not Active | Not Active | – | – | – |
| Cc1cccc(C)c1NC(=O)C(C)N (stereo unspecified) [TOCAINIDE] | Not Active | Not Active | Not Active | Not Active | Not Active | Not Active | Not Active | Not Active | Not Active | Not Active | Not Active | Not Active | Not Active | – | – | – |
| Cc1cc2c(s1)Nc1ccccc1N=C2N1CCN(C)CC1 [OLANZAPINE] | – | – | Not Active | Not Active | – | – | – | – | – | – | – | – | Not Active | – | – | – |
| CNCCCC12CCC(c3ccccc31)c1ccccc12 [MAPROTILINE] | – | – | Not Active | Not Active | – | – | – | – | – | – | – | – | Not Active | – | – | – |
| CN(C)CCC=C1c2ccccc2COc2ccccc21 [DOXEPIN] | – | – | Not Active | Not Active | – | – | – | – | – | – | – | – | Not Active | – | – | – |
